Laboratory results from patent US10822317B2, “Methods and compositions for wound healing” (QBiotics Limited, priority 2013, dated 2020).

Columns and labels:
HaCaT cells [1] = test: HaCaT proliferation (MTT); format: cell-based, human; set-up: dose or concentration left out as unconfirmed; settings: 24, 48, 120 and 168 hr; p<0.01
Excerpt: The proliferation experiment assessed the effects of the two compounds on HaCaT proliferation (as measured by MTT) in the culture system at 4 time periods (24, 48, 120 and 168 hr).

neutrophils = test: Induction of reactive oxygen burst by neutrophils; format: cell-based, human; settings: 1 ng/ml to 100 μg/ml; 15 min; DHE, flow cytometry
Method: Neutrophils were isolated from fresh blood of a healthy human donor by lysis of a red blood cell pellet that had been obtained by Ficoll-Paque sedimentation. The neutrophils (˜4×10^6 cells/ml) were incubated with 10 μg/ml dihydroethidium (DHE) (Sigma-Aldrich) in complete culture medium at 37° C. for 15 min alongside an aliquot of unstained cells to be tested as unstained control. This incubation was followed by treatment with Compound 1 at a range of concentrations (0, 1 ng/ml, 10 ng/ml, 100 ng/ml, 1 μg/ml, 10 μg/ml, 100 μg/ml) for 15 min. The generation of reactive oxygen species following incubation was determined using a FACS Canto flow cytometer to measure fluorescence due to oxidation of DHE to the ethidium ion.

[2] = tested on: chronic, non-healing wounds; test: Veterinary case studies 1 to 7, non-healing wounds in dogs; format: in vivo, Canis lupus familiaris
Method: (§1) Seven dogs (Canis lupus familiaris) and one tree kangaroo (Dendrolagus humholzii) with chronic, non-healing wounds that were unresponsive to current veterinary standards-of-care for these indications were treated with Compound 1 by independent veterinarians. A second tree kangaroo and a spectacled flying fox (Pteropus conspicillatus) with wounds unsuited for initial treatment with current standards-of-care were also treated with Compound 1. All cases were managed as open wounds without the use of dressings or other bandaging during the course of treatment with Compound 1 and the subsequent period of wound resolution. Unless stated in individual case studies, no concomitant medications were used over the course of treatments with Compound 1.
Case notes: • Frail patient with severe osteoarthritis, considered a high anaesthetic risk for any surgical intervention. • Patient had persistent infected cyst on the back proximal to the tail that had not responded to regular draining and injection of the cyst with antibiotics (gentamycin, enrofloxacin, norocillin) over a 5 month period. • Patient presented with the burst cyst and elevated temperature. The cyst was cleaned to remove dead skin and then flushed with saline and chlorhexidene.
The wound area was fully healed by 63 days after treatment. • The wound on leg also responded quickly with eschar present in localised areas. By 14 days the eschar had largely shed and healthy underlying granulation tissue was observed.
Case notes: • Patient presented with a non-healing laceration due to a hunting accident that had been present on the left ear for more than 6 weeks. • Three treatments, each of 0.1 mL of 5 mg/mL gel formulation of Compound 1, were applied to the affected area at 8 day intervals. No concomitant medications were used during the course of treatment of the patient with Compound 1. • By 41 days after the first treatment with Compound 1 the wound had fully closed.
Case notes: • The patient presented with non-healing (infected and inflamed) sore on upper part of left ear and was treated for 10 weeks with standard-of-care protocols involving regular application of (i) a topical dermatological formulation (Neotopic) combining antibacterial (neomycin sulphate), anti-inflammatory (hydrocortisone) and anti-pruritic (lignocaine) agents, and (b) a commercial suspension (Auracol) with anti-inflammatory (prednisolone), antifungal (miconazole nitrate) and antibacterial (polymixin B sulphate) components. Prior to these treatments the patient was on an on-going course of low dose oral corticosteroids (macrolone) for treatment of chronic canine atopic dermatitis syndrome. • After 10 weeks of the standard-of-care protocol there was no sign of wound resolution. • A single treatment of 3 mL of a 5 mg/mL gel formulation of Compound 1 was applied to the affected area and within 15 minutes of application of Compound 1 there was discernable reddening of the treated area. • From 4 days after treatment with Compound 1 the patient recommenced low dose daily corticosteroids (macrolone) for treatment of the severe atopic dermatitis.
Case notes: • The patient presented with two non-healing wounds at the tip and base of the right ear and a non-healing wound on the snout that owner had observed present for more than 4 weeks. Possible origin was infected spider or other insect bites. • Two treatments, each of 0.1 mL of 5 mg/mL gel formulation of Compound 1, were applied to both affected areas on the ears at a 5 day interval.

HaCaT cells [3] = test: HaCaT scratch repopulation with Mitomycin C (migration study); format: cell-based, human; settings: with 1 μg/mL Mitomycin C; 0.001 to 1.0 μg/mL; p<0.05
[4] = tested on: severe lacerated wound on the head; test: Veterinary case study 10, lacerated head wound of a spectacled flying fox; format: in vivo, Pteropus conspicillatus
Method: as §1
Case notes: • The patient presented as a 4 month old flying fox with a deep penetrating wound on the head […] caused by entanglement in barbed wire. • In the opinion of the treating veterinarian who had extensive experience in wildlife injuries (including flying foxes) normal standard of care treatments were likely to be highly problematic in causing the right eye to lose shape and not be able to close, either due to excessive scar tissue formation associated with surgery or the extent of granulation required if wound healing dressings were applied. • Compound 1 was applied to the wound in 3 applications of 0.1 mL of 5 mg/mL gel formulation over a 28 day period (Days 1, 10 and 28). […] A very healthy granulation bed was present.

[5] = Case 1, 76 days following the final treatment
[6] = Case 5, 152 days after the initial treatment
[7] = Case 6, 83 days after treatment

## CC=C(C)C(=O)OC1C(C)C2(O)C(C3OC3(CO)C(O)C3(O)C(=O)C(C)=CC32)C2C(C)(C)C12OC(=O)C(C)CC (centres unmarked) [Compound 1, 12-tigloyl-13-(2-methylbutanoyl)-6,7-epoxy-4,5,9,12,13,20-hexahydroxy-1-tigliaen-3-one]
HaCaT cells [1]
  proliferation of HaCaT cells (MTT) vs control with no compound: increasing proliferation
neutrophils
  production of reactive oxygen species (ROS): induced the significant production of reactive oxygen species (ROS) in a dose-dependent manner
[2]; Case 1, Bernese Mountain Dog, facial wound, gel 3 mg/mL x5, then 1 mL 0.5 mg/mL injected, 35 days following injection
  wound status: infilled with healthy differentiating granulation tissue
[2]; [5]
  hair regrowth, % of the original wound area: greater than 95%
  wound outcome: healed and was infilled with normal tissue minimal scarring
[2]; Case 2, Boxer, burst infected cyst, 0.5 mL gel 3 mg/mL, 5 days post treatment
  wound area as % of the area of the original wound: less than 30%
[2]; Case 2, 30 days
  hair regrowth over the original wound area: greater than 70%
  wound outcome: resolved with normal tissue
[2]; Case 3, Chow Chow, two bite wounds, 0.4 mL gel 3 mg/mL each, 15 days post treatment
  wound size as % of original size: less than 40%
[2]; Case 3, 46 days following treatment
  wound outcome: completely resolved with normal tissue, no scarring and complete hair regrowth
[2]; Case 4, Boxer, single 0.4 mL gel 5 mg/mL
  time to complete wound closure, facial wound: ≤ 14 days
[2]; Case 4, 63 days after treatment
  hair cover, leg wound: greater than 95%
[2]; Case 4, single 0.4 mL gel 5 mg/mL
  time to fully healed wound area, facial wound: ≤ 63 days
[2]; Case 4, single 0.6 mL gel 5 mg/mL, 63 days after treatment
  wound outcome, leg wound: completely closed
[2]; Case 5, Bull Arab, ear laceration, 3 x 0.1 mL gel 5 mg/mL at 8 day intervals, after first treatment
  time to full wound closure: ≤ 41 days
[2]; [6]
  hair coverage over the original wound site: greater than 80%
  wound outcome: complete wound resolution, minimal scarring
[2]; Case 6, Boxer, ear wound, single 3 mL gel 5 mg/mL
  time to discernable reddening of the treated area: ≤ 15 min
[2]; Case 6, 17 days after treatment
  wound status: no sign of infection or inflammation
[2]; [7]
  hair regrowth, % of the original wound area: more than 90%
  wound outcome: complete wound closure
[2]; Case 6, 139 days after treatment
  scarring: no evidence of scarring
[2]; Case 7, Jack Russell Terrier, 2 x 0.1 mL gel 5 mg/mL, 13 days after the first treatment
  wound status, ear wounds: contracted significantly and had formed eschars
[2]; Case 7, 2 x 0.1 mL gel 5 mg/mL
  time to full wound closure, ear wounds: ≤ 29 days
[2]; Case 7, single 0.1 mL gel 5 mg/mL, 16 days after treatment
  wound outcome, snout wound: fully resolved
HaCaT cells [3]
  scratch repopulation and closure (migration study): enhanced
[4]; Case 10, flying fox, head wound, 3 x 0.1 mL gel 5 mg/mL (Days 1, 10, 28), 14 days after the initial treatment
  wound status: significant tissue infill and remodeling
[4]; Case 10, 55 days after the initial treatment
  wound status: good tissue infill over the entire area of the original wound
[4]; Case 10, by 28 days
  eye function: capable of fully closing
